Assay results from article PMC10481938, “Discovery of new Schistosoma mansoni aspartyl protease inhibitors by structure-based virtual screening” (Memórias do Instituto Oswaldo Cruz, 2023).

How the values were obtained:
[1] = target: recombinant Schistosoma mansoni cathepsin D-like aspartyl protease 1 (SmCD1) (Schistosoma mansoni, UniProt P91802); assay: SmCD1 enzymatic assay (FRET substrate Abz-AIAF/FSRQ-EDDnp); assay type: biochemical; settings: for inhibition at 10 µM: read-out: Enzymatic activity inhibition (%) SmCD1; for IC50: recombinant SmCD1, pH 3.5, 95% confidence interval in parentheses; for Binding efficiency index (BEI): BEI = pIC50/MW(kDa), from SmCD1 IC50
recombinant Schistosoma mansoni cathepsin D-like aspartyl protease 1 (SmCD1), sequence (P91802 entry or part of it): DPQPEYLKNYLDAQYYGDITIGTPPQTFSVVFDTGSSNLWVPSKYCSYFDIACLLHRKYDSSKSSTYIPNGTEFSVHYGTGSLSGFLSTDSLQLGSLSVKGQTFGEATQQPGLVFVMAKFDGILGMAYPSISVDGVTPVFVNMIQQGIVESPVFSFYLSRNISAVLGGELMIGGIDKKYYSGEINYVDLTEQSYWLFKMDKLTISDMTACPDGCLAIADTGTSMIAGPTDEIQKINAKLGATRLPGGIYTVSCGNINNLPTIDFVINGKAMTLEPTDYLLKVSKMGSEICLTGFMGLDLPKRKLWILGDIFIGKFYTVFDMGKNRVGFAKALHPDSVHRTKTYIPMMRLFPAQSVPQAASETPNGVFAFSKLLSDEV
Experimental: SmCD1 cloning, expression and purification - Expression of the recombinant enzyme was previously performed by our group[14] by transfection of the vector with recombinant proSmCD1 gene (proSmCD1r) into culture bottles containing human embryonic kidney (HEK293) cells. After an incubation period of three to five days, the culture medium of the HEK293 cells was collected, filtered, and used for the purification of the recombinant protein. A HisTrap FF column in-tandem with a HiLoad 16/60 Superdex column, connected to an Äkta Xpress system were used for the purification of the protein.
(§1) SmCD1 enzymatic assay - Initially, 2.5 μg of SmCD1 was added to a reaction medium containing 50 mM sodium acetate buffer with 50 mM NaCl at pH 3.5. […] After incubation, to start the reaction, 10 μM of the substrate octapeptide fluorescent (FRET) Abz-AIAF/FSRQ-EDDnp (102023-1, GenOne) was added to the medium. The substrate hydrolysis reaction product was continuously detected (λex = 310 nm and λem = 420 nm), using a Flex Station III microplate reader (Molecular Devices), during the initial 10 min of the reaction.
(§2) All enzymatic assays in this work were performed as described above, and repeated at least three times, each condition in triplicate. In tests involving screening of compounds, the percentage of inhibition of enzymatic activity was calculated considering the mean of the negative control as 100% activity.
(§3) Determination of IC 50 values - For IC50 (inhibitor concentration in which the enzymatic activity is reduced by 50%) determination assays, serial dilutions of the inhibitors were performed, ranging from 1 µM to 500 µM. The IC50 values were determined by fitting SmCD1 activity data into the 4-parameter logistic equation.

[2] = tested on: adult worm aqueous extract (AWAE) aspartic protease activity; assay: AWAE aspartic protease activity assay; assay type: biochemical, Schistosoma mansoni; settings: for IC50: aspartic protease activity of adult worm aqueous extract, with 5 µM E-64, 95% confidence interval in parentheses; for Enzymatic activity inhibition (%) AWAE: 10 μM of compound, average of triplicate of single experiment, CV% in parentheses
Experimental: Preparation of adult worm aqueous extract (AWAE) - The extract was prepared from the homogenisation of 1 mL of worms, containing both male and female, in 5 mL of phosphate buffered saline (PBS) + 1% CHAPS, at pH 7.4, using a Turrax disperser. This volume of parasites is roughly equivalent to 20 adult parasites. The homogenate was centrifuged at 20,000 g for 1 hour at 4 °C, and the supernatant stored at -80 °C. An aliquot was used for the protein dosing by the Lowry method (DC^TM protein assay - BIO-RAD).
[…] In tests involving screening of compounds, the percentage of inhibition of enzymatic activity was calculated considering the mean of the negative control as 100% activity.
(§4) AWAE aspartic protease activity assay - For assaying the aspartyl protease activity present in the AWAE, the same protocol described above for SmCD1 was followed, except for 20 µg of total proteins present in AWAE were added instead of the recombinant SmCD1 enzyme. Additionally, 5 µM of E-64, an inhibitor of cysteinyl proteases, was added to prevent enzymes of this class present in the AWAE[15] to also contribute to substrate hydrolysis on the acidic pH of the assay.
as §3

porcine pepsin = target: T1, porcine pepsin (Sus scrofa, UniProt P00791); assay: Specificity assay toward porcine pepsin; assay type: biochemical; settings: for inhibition at 10 µM: 10 μM of compound, average of triplicate of single experiment, CV% in parentheses, read-out: Enzymatic activity inhibition (%) Pepsin; for IC50: porcine pepsin, 95% confidence interval in parentheses
T1 construct: purchased Difco 0151-17 / 215110
T1 sequence (P00791 60-385): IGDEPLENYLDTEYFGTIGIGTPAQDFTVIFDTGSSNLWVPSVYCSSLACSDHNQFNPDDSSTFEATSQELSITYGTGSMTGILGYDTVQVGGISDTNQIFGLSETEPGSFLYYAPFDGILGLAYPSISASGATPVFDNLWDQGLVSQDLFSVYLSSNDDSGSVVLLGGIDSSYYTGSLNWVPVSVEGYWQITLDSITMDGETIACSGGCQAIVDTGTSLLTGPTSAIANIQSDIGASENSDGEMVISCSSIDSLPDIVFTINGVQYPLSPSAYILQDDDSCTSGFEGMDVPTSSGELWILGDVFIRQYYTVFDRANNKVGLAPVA
Experimental: as §1
(§5) Specificity assays toward mammalian proteases - For recombinant BtCD and porcine pepsin, the same protocol described above for SmCD1 was followed, except for 10 μg of BtCD or 5 μg of pepsin were added.
The IC50 values were determined by fitting SmCD1 activity data into the 4-parameter logistic equation.

[3] = tested on: aspartic protease activity (porcine pepsin, SmCD1, AWAE); assay: Aspartic protease inhibition screening of 50 putative hits (hit criterion); assay type: biochemical; settings: 10 µM, SmCD1 or AWAE
Experimental: as §1, §2, §4, §5
The AWAE assay captures the combined activities of all SmAPs present in schistosome adult worms, while excluding the concurrent cysteinyl protease activity, due the addition of the broad-spectrum E-64 inhibitor.

[4] = target: T2, bovine cathepsin D (BtCD) (Bos taurus, UniProt P80209); assay: Specificity assay toward bovine cathepsin D (BtCD); assay type: biochemical
T2 construct: purchased Sigma-Aldrich C3138
T2 sequence (P80209 45-390): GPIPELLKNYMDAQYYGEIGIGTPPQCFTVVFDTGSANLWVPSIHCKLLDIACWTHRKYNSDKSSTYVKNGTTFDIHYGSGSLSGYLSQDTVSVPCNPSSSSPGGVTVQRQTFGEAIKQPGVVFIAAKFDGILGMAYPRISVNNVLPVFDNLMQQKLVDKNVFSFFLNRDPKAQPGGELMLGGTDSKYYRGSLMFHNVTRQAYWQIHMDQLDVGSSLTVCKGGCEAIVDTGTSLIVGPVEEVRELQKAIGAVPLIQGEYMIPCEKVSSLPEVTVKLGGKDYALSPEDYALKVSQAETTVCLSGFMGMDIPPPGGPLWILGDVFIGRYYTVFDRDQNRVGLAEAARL
Experimental: as §1, §5

WSS-1 cells = assay: Cytotoxicity assay on human WSS-1 cells (resazurin); assay type: cell-based; settings: 48 h
Experimental: Cytotoxicity assays on human WSS-1 cells - The cytotoxicity of compounds 5, 19 and 50 was evaluated against normal epithelial cells derived from human kidney (WSS-1, ATCC™ CRL-2029). Cells were seeded in 96-well plates, at 5x10^4 cells/mL, in DMEM high glucose medium supplemented with 10% foetal bovine serum (FBS). After adherence period of 24 h, at 37 °C and 5% CO2, the cells were treated with compounds at 10 µM or 100 μM concentrations and incubated for 44 h. After this time, resazurin solution was added to cells culture, at a final concentration of 0.01 mg/mL. The cells returned to the incubator for another 4 h to complete 48 h total incubation time.[50]
Fluorescence readings of resorufin (λex = 560 nm, λem = 590 nm) were taken immediately (F0) and 4 hours (F4) after resazurin addition, using Flex Station III. The percentage of viable cells at the end of the experiment, that is, after compounds exposure for 48h, was calculated as follows: […]
<mml:math><mml:mi>V</mml:mi><mml:mi>i</mml:mi><mml:mi>a</mml:mi><mml:mi>b</mml:mi><mml:mi>l</mml:mi><mml:mi>e</mml:mi><mml:mi> </mml:mi><mml:mi>c</mml:mi><mml:mi>e</mml:mi><mml:mi>l</mml:mi><mml:mi>l</mml:mi><mml:mi>s</mml:mi><mml:mo>=</mml:mo><mml:mfrac><mml:mrow><mml:mi>F</mml:mi><mml:mn>4</mml:mn><mml:mo>-</mml:mo><mml:mi>F</mml:mi><mml:mn>0</mml:mn><mml:mi mathvariant="normal"> </mml:mi><mml:mi mathvariant="normal">t</mml:mi><mml:mi mathvariant="normal">r</mml:mi><mml:mi mathvariant="normal">e</mml:mi><mml:mi mathvariant="normal">a</mml:mi><mml:mi mathvariant="normal">t</mml:mi><mml:mi mathvariant="normal">e</mml:mi><mml:mi mathvariant="normal">d</mml:mi></mml:mrow><mml:mrow><mml:mi>F</mml:mi><mml:mn>4</mml:mn><mml:mo>-</mml:mo><mml:mi>F</mml:mi><mml:mn>0</mml:mn><mml:mi mathvariant="normal"> </mml:mi><mml:mi mathvariant="normal">c</mml:mi><mml:mi mathvariant="normal">o</mml:mi><mml:mi mathvariant="normal">n</mml:mi><mml:mi mathvariant="normal">t</mml:mi><mml:mi mathvariant="normal">r</mml:mi><mml:mi mathvariant="normal">o</mml:mi><mml:mi mathvariant="normal">l</mml:mi></mml:mrow></mml:mfrac><mml:mi mathvariant="normal"> </mml:mi><mml:mi mathvariant="normal">x</mml:mi><mml:mi mathvariant="normal"> </mml:mi><mml:mn>100</mml:mn><mml:mi mathvariant="normal"> </mml:mi></mml:math>

adult S. mansoni worms = assay: Schistosoma mansoni adult worms ex vivo motility assay; assay type: cell-based; settings: 10 µM; for effect on female worms motility: late incubation times (48 or 72 h), female adult worms; for killing of adult worms ex vivo (judged by worm motility): up to 72 h, male and female adult worms
Experimental: Schistosoma mansoni adult worms ex vivo assay - The effect of 10 µM of the test compounds or PZQ (positive control) on adult S. mansoni worms motility for up to 72 h of incubation at 37 °C and 5% CO2 was evaluated by a high content assay previously developed by our group.[50] Image analysis was carried out in a customised pipeline of the open-source Cellprofiler software v. 4.2.1[51] and consisted of quantifying parasites area (Area measurement of MeasureObjectSizeShape module) and its displacement over pairs of consecutive images (false negative rate measurement of MeasureObjectOverlap module). […] The effects of the experimental treatments on parasites motility were estimated from this model by the integrated nested laplace approximation (INLA) method available in INLA package of R (https://www.r-inla.org). The results were expressed as percentual relative motility considering the estimated effect of the negative control group (0.2% DMSO) for each incubation time as 100%.

[5] = up to tested concentration 500 μM

Molecule: O=C(CSc1nc2cc([N+](=O)[O-])ccc2[nH]1)Nc1ccc(F)c(F)c1 [Compound 1]
- inhibition at 10 µM [1]: 0.4%
- IC50 [1]: > 500 µM
- IC50 [2]: > 500 µM
- inhibition at 10 µM (porcine pepsin): 5.6%
- IC50 (porcine pepsin): > 500 µM
- inhibition of any of the aspartic protease activity (considered active) [3]: ≥ 25%

Molecule: Cc1cccc(NS(=O)(=O)c2ccc3[nH]c(=O)c(=O)[nH]c3c2)c1 [Compound 5, 2,3-dioxo-N-(m-tolyl)-1,2,3,4-tetrahydroquinoxaline-6-sulfonamide]
- Binding efficiency index (BEI) [1]: 12.3
- inhibition at 10 µM [1]: 24.3%
- IC50 [1]: 83.6 µM
- Enzymatic activity inhibition (%) AWAE [2]: 23.0 (14) %
- IC50 [2]: 135 µM
- inhibition at 10 µM (porcine pepsin): 44.2%
- IC50 (porcine pepsin): 92.6 µM
- inhibition at 500 µM ([4]; highest concentration evaluated, 500 μM (solubility limitation)): ≤ 45%
- IC50 ([4]; inferred from less than 50% inhibition at 500 μM): > 500 µM
- cytotoxicity against WSS-1 cells (WSS-1 cells; 10 µM): neither cytotoxic
- cytotoxicity against WSS-1 cells (WSS-1 cells; up to 100 µM): non-toxic
- effect on female worms motility (adult S. mansoni worms): slight decrease
- killing of adult worms ex vivo (judged by worm motility) (adult S. mansoni worms): nor could kill adult worms
- inhibition of any of the aspartic protease activity (considered active) [3]: ≥ 25%

Molecule: Cc1ccc(C(C)(C)C)c(OCCCNCCN)c1 [Compound 12]
- inhibition at 10 µM [1]: -10.5%
- IC50 [1]: > 500 µM
- Enzymatic activity inhibition (%) AWAE [2]: 32.0 (11) %
- IC50 [2]: 315 µM
- inhibition at 10 µM (porcine pepsin): -3.5%
- IC50 (porcine pepsin): 231 µM
- inhibition of any of the aspartic protease activity (considered active) [3]: ≥ 25%

Molecule: Cc1cccc(NC(=O)CSc2ncnc3sc4c(c23)CCC(C)C4)c1 (centres unmarked) [Compound 19, 2-((7-methyl-5,6,7,8-tetrahydrobenzo[4,5]thieno[2,3-d]pyrimidin-4-yl)thio)-N-(m-tolyl)acetamide]
- Binding efficiency index (BEI) [1]: 10.4
- inhibition at 10 µM [1]: -15.3%
- IC50 [1]: 102 µM
- Enzymatic activity inhibition (%) AWAE [2]: 9.20 (12) %
- IC50 [2]: > 500 µM
- inhibition at 10 µM (porcine pepsin): 42.4%
- IC50 (porcine pepsin): 23.1 µM
- cytotoxicity against WSS-1 cells (WSS-1 cells; 10 µM): neither cytotoxic
- cytotoxicity against WSS-1 cells (WSS-1 cells; up to 100 µM): non-toxic
- killing of adult worms ex vivo (judged by worm motility) (adult S. mansoni worms): nor could kill adult worms
- inhibition of any of the aspartic protease activity (considered active) [3]: ≥ 25%

Molecule: CCn1c2ccccc2c2cc(NC(=O)CSC3=C(C#N)C(c4ccccc4F)CC(=O)N3)ccc21 (centres unmarked) [Compound 22]
- inhibition at 10 µM [1]: 1.8%
- IC50 [1]: > 500 µM
- Enzymatic activity inhibition (%) AWAE [2]: 16.0 (15) %
- IC50 [2]: > 500 µM
- inhibition at 10 µM (porcine pepsin): 25.4%
- IC50 (porcine pepsin): 38 µM
- inhibition of any of the aspartic protease activity (considered active) [3]: ≥ 25%

Molecule: N=C(Nc1ccccc1)Nc1nc(=O)cc(CSc2nc3ccccc3s2)[nH]1 [Compound 32]
- inhibition at 10 µM [1]: 12.2%
- IC50 [1]: > 500 µM
- IC50 [2]: > 500 µM
- inhibition at 10 µM (porcine pepsin): 34.7%
- IC50 (porcine pepsin): 72.5 µM
- inhibition of any of the aspartic protease activity (considered active) [3]: ≥ 25%

Molecule: Fc1ccc(-c2ccc(CNCCOc3ccccn3)o2)cc1Cl [Compound 50]
- inhibition at 10 µM [1]: 3.4%
- IC50 [1]: > 500 µM
- inhibition against SmCD1 [1, 5]: not showing significant inhibition
- Enzymatic activity inhibition (%) AWAE [2]: 34.5 (8) %
- IC50 [2]: 77.7 µM
- inhibition at 10 µM (porcine pepsin): 10.5%
- IC50 (porcine pepsin): > 500 µM
- inhibition against pepsin (porcine pepsin; [5]): not showing significant inhibition
- cytotoxicity against WSS-1 cells (WSS-1 cells; 10 µM): neither cytotoxic and safe
- decrease of WSS-1 cell viability (WSS-1 cells; 100 µM): more than 90%
- effect on female worms motility (adult S. mansoni worms): slight decrease
- killing of adult worms ex vivo (judged by worm motility) (adult S. mansoni worms): nor could kill adult worms
- inhibition of any of the aspartic protease activity (considered active) [3]: ≥ 25%

Molecule: pepstatin A [reference compound]
- Enzymatic activity inhibition (%) AWAE [2]: 98.7 (7) %
